The text below walks through data of publication PMC7464485, “Antimicrobial Activities of Highly Bioavailable Organic Salts and Ionic Liquids from Fluoroquinolones” (Pharmaceutics, 2020).

Each structure is given as a SMILES string. In brackets after ≈: the same amount, converted by molar mass. Where two headings read alike, the source gives them in different places. Where only a bound is given, the exact number is not on record here.

Data set [1] has as its system Staphylococcus aureus (ATCC 25923). The experiment in a line: Antimicrobial activity (growth, OD 600 nm). The format is cell-based.
The subject of data set [2] is Bacillus subtilis (ATCC 6633). The experiment in a line: Antimicrobial activity (growth, OD 600 nm). In kind it is cell-based.
Data set [3] relates to Klebsiella pneumoniae (ATCC 11296). The experiment in a line: Antimicrobial activity (growth, OD 600 nm). In kind it is cell-based.
Data set [4] can be described thus: Critical micelle concentration via ionic conductivity. The format is physicochemical. As to conditions: for CMC: in water at 25 °C.
A further data set has as its system 3T3 mouse fibroblasts. The experiment in a line: Cytotoxicity on 3T3 cells (MTT). The format is cell-based.
For data set [5] the following is noted: cited from earlier work.
For data set [6] the following is noted: in water at 25 °C, cited from earlier work.
The mark [7] stands for this setting: Staphylococcus aureus, ATCC25923, 0.001–10 µM, read-out: IC50 S. aureus.
The mark [8] stands for this setting: Bacillus subtilis, ATCC6633, 0.001–10 µM, read-out: IC50 B. subtilis.
Where [9] appears, read: Klebsiella pneumoniae, ATCC11296, 0.001–10 µM, read-out: IC50 K. pneumoniae.
[10] abbreviates: 0.001–10 µM, read-out: IC50 S. aureus.
Setting [11] is: relative decrease of inhibitory concentration vs norfloxacin.
The mark [12] stands for this setting: 0.001–10 µM, read-out: IC50 B. subtilis.
Setting [13] is: 0.001–10 µM, read-out: IC50 K. pneumoniae.
The mark [14] stands for this setting: relative decrease of inhibitory concentration vs ciprofloxacin.

The term IC50 denotes the concentration at which inhibition is half-maximal. In the case of `Cc1n(CCO)cc[n+]1C` [[C2OHDMIM]Cl, reference compound], the IC50 in data set [1] (setting [7]), in data set [2] (setting [8]) and in data set [3] (setting [9]) was over 10000 nM each time.

Take `CCn1cc[n+](C)c1` [[EMIM]Br, reference compound]: the IC50 in data set [1] (setting [7]), in data set [2] (setting [8]) and in data set [3] (setting [9]) was over 10000 nM throughout.

As to `CCn1cc(C(=O)[O-])c(=O)c2cc(F)c(N3CCNCC3)cc21.C[n+]1ccn(CCO)c1` [[C2OHMIM][Nor]], the figures for the IC50 in data set [1] (setting [10]), in data set [2] (setting [12]) and in data set [3] (setting [13]) were 91.7 nM, 88.6 nM and 201 nM, respectively. Also, the “RDIC50 S. aureus” value in data set [1] (setting [11]) is 1.3. Also, the “RDIC50 B. subtilis” value in data set [2] (setting [11]) stood at 1.3. Moreover, the “RDIC50 K. pneumoniae” value in data set [3] (setting [11]) amounted to 1.3.

`CCCCCCCCCCCCCCCC[n+]1ccccc1.CCn1cc(C(=O)[O-])c(=O)c2cc(F)c(N3CCNCC3)cc21` [[C16Py][Nor]]: the IC50 in data set [1] (setting [10]) is 10.8 nM; in data set [2] (setting [12]), 87.3 nM; in data set [3] (setting [13]), 203 nM; in the data set with 3T3 mouse fibroblasts, 5170 nM; in the data set with 3T3 mouse fibroblasts (0.03–10 µM, 24 h) it was 5160 nM. Moreover, in data set [1] (setting [11]), the “RDIC50 S. aureus” value stood at 11.4. In data set [2] (setting [11]), the “RDIC50 B. subtilis” value came out at 1.3. The “increase in activity against K. pneumoniae vs norfloxacin” value in data set [3] came out at 30%. Also, in data set [3] (setting [11]), the “RDIC50 K. pneumoniae” value was determined as 1.3. For the same compound, the “decrease of CMC in comparison with [C16Py]Cl” value in data set [4] was 95%. In data set [4], this compound displayed a CMC of 0.0539 mmol/L.

In the case of `Cc1n(CCO)cc[n+]1C.O=C([O-])c1cn(C2CC2)c2cc(N3CCNCC3)c(F)cc2c1=O` [[C2OHDMIM][Cip]], the IC50 in data set [1] (setting [10]) came to 21.2 nM; in data set [2] (setting [12]) it was 12.3 nM; in data set [3] (setting [13]) it was 51 nM. Further, the “RDIC50 S. aureus” value in data set [1] (setting [14]) is 1.4. Besides, the “RDIC50 B. subtilis” value in data set [2] (setting [14]) stood at 0.3. Also, the “RDIC50 K. pneumoniae” value in data set [3] (setting [14]) is given as 3.9.

In the case of `CCn1cc(C(=O)[O-])c(=O)c2cc(F)c(N3CCNCC3)cc21.COCC[n+]1ccn(C)c1` [[C3OMIM][Nor]], the figures for the IC50 in data set [1] (setting [10]), in data set [2] (setting [12]) and in data set [3] (setting [13]) were 107 nM, 68.1 nM and 224 nM, respectively. Moreover, the “RDIC50 S. aureus” value in data set [1] (setting [11]) is recorded as 1.1. The “RDIC50 B. subtilis” value in data set [2] (setting [11]) is 1.7. Further, the “RDIC50 K. pneumoniae” value in data set [3] (setting [11]) was determined as 1.1.

As to `O=C(O)c1cn(C2CC2)c2cc(N3CCNCC3)c(F)cc2c1=O` [Ciprofloxacin, ciprofloxacin, reference compound], the IC50 came out at 29.2 nM in data set [1] (setting [7]), 3.84 nM in data set [2] (setting [8]) and 196 nM in data set [3] (setting [9]).

As for `CCn1cc(C(=O)O)c(=O)c2cc(F)c(N3CCNCC3)cc21` [Norfloxacin, norfloxacin, reference compound], the IC50 turned out to be 123 nM in data set [1] (setting [7]); 117 nM in data set [2] (0.001–10 µM, listed as Nor, read-out: IC50 B. subtilis); 97.7 nM in data set [2] (setting [8]); 255 nM in data set [3] (setting [9]). Further, the Solubility in water in data set [5] (25 °C, neutral form) was 370 µg/mL (≈ 1160 µM); in data set [5] (25 °C, value outside parentheses), 540 ± 20 µg/mL (≈ 1690 µM); in data set [5] (37 °C, value in parentheses), 850 ± 40 µg/mL (≈ 2660 µM); in data set [5] (37 °C, value outside parentheses), 840 ± 20 µg/mL (≈ 2630 µM).

For `CCCCCCCCCCCCCCCC[n+]1ccccc1.[Cl-]` [[C16Py]Cl], the figures for the CMC in data set [6] (ref 49), in data set [6] (ref 50) and in data set [4] were 1.067 mmol/L, 0.96 mmol/L and 1.063 mmol/L, respectively.

As for `C[N+](C)(C)CCO.[Cl-]` [[Ch]Cl, reference compound], the IC50 is over 10000 nM in data set [1] (Staphylococcus aureus, ATCC25923, read-out: IC50 S. aureus); over 10000 nM in data set [2] (Bacillus subtilis, ATCC6633, read-out: IC50 B. subtilis); over 10000 nM in data set [3] (Klebsiella pneumoniae, ATCC11296, read-out: IC50 K. pneumoniae, 0.001–10 µM).

Consider `CCn1cc(C(=O)[O-])c(=O)c2cc(F)c(N3CCNCC3)cc21.Cc1n(CCO)cc[n+]1C` [[C2OHDMIM][Nor]], for which the “increased activity against S. aureus vs norfloxacin” value in data set [1] is listed as 60%. The figures for the IC50 in data set [1] (setting [10]), in data set [2] (setting [12]) and in data set [3] (setting [13]) were 79.5 nM, 149 nM and 178 nM, respectively. Also, in data set [1] (setting [11]), the “RDIC50 S. aureus” value is recorded as 1.6. Besides, the “lost activity against B. subtilis vs norfloxacin” value in data set [2] is given as 20%. The “RDIC50 B. subtilis” value in data set [2] (setting [11]) came to 0.8. Also, in data set [3], the “increase in activity against K. pneumoniae vs norfloxacin” value was found to be 40%. The “RDIC50 K. pneumoniae” value in data set [3] (setting [11]) is on record as 1.4.

Take `C[n+]1ccn(CCO)c1` [[C2OHmim]Cl, reference compound]: the IC50 in data set [1] (setting [7]), in data set [2] (setting [8]) and in data set [3] (setting [9]) was over 10000 nM each time.

Turning to `COCC[n+]1ccn(C)c1.O=C([O-])c1cn(C2CC2)c2cc(N3CCNCC3)c(F)cc2c1=O` [[C3OMIM][Cip]], the IC50 in data set [1] (setting [10]) is 82 nM; in data set [2] (setting [12]), 21.7 nM; in data set [3] (setting [13]), 47.6 nM. Further, the “RDIC50 S. aureus” value in data set [1] (setting [14]) is on record as 0.4. Besides, the “RDIC50 B. subtilis” value in data set [2] (setting [14]) turned out to be 0.2. Further, the “RDIC50 K. pneumoniae” value in data set [3] (setting [14]) is reported as 4.1.

Consider `CCn1cc(C(=O)[O-])c(=O)c2cc(F)c(N3CCNCC3)cc21.C[N+](C)(C)CCO` [[Ch][Nor]], for which the IC50 in data set [1] (setting [10]) was determined as 127 nM; in data set [2] (setting [12]), 95.5 nM; in data set [3] (setting [13]), 199 nM. The “RDIC50 S. aureus” value in data set [1] (setting [11]) was found to be 1.0. The “RDIC50 B. subtilis” value in data set [2] (setting [11]) is recorded as 1.2. In addition, the “RDIC50 K. pneumoniae” value in data set [3] (setting [11]) was 1.3.

As to `C[N+](C)(C)CCO.O=C([O-])c1cn(C2CC2)c2cc(N3CCNCC3)c(F)cc2c1=O` [[Ch][Cip]], the IC50 stood at 181 nM in data set [1] (setting [10]), 20.6 nM in data set [2] (setting [12]) and 51.1 nM in data set [3] (setting [13]). The “RDIC50 S. aureus” value in data set [1] (setting [14]) worked out at 0.2. In data set [2] (setting [14]), the “RDIC50 B. subtilis” value came out at 0.2.

With `COCCn1cc[n+](C)c1` [[C3Omim]Cl, reference compound], the IC50 in data set [1] (setting [7]), in data set [2] (setting [8]) and in data set [3] (setting [9]) was over 10000 nM throughout.

Take `C[n+]1ccn(CCO)c1.O=C([O-])c1cn(C2CC2)c2cc(N3CCNCC3)c(F)cc2c1=O` [[C2OHMIM][Cip]]: the IC50 in data set [2] (setting [12]) amounted to 15.8 nM; in data set [3] (setting [13]), 36.4 nM. Further, in data set [2] (setting [14]), the “RDIC50 B. subtilis” value is recorded as 0.2. Also, the “RDIC50 K. pneumoniae” value in data set [3] (setting [14]) worked out at 5.4.

As for `CCn1cc(C(=O)[O-])c(=O)c2cc(F)c(N3CCNCC3)cc21.CCn1cc[n+](C)c1` [[EMIM][Nor]], the results for the IC50 in data set [1] (setting [10]), in data set [2] (setting [12]) and in data set [3] (setting [13]) were 211 nM, 24.5 nM and 208 nM, respectively. Besides, in data set [1] (setting [11]), the “RDIC50 S. aureus” value is given as 0.6. For the same compound, the “RDIC50 B. subtilis” value in data set [2] (setting [11]) is on record as 4.8. Moreover, the “RDIC50 K. pneumoniae” value in data set [3] (setting [11]) was 1.2.

Regarding `CCCCCCCCCCCCCCCC[n+]1ccccc1.O=C([O-])c1cn(C2CC2)c2cc(N3CCNCC3)c(F)cc2c1=O` [[C16Py][Cip]], the “activity against S. aureus” value in data set [1] is “almost no activity”. The IC50 in data set [1] (setting [10]) worked out at 1430 nM; in data set [2] (setting [12]), 6.07 nM; in data set [3] (setting [13]) it was 9.88 nM; in the data set on 3T3 mouse fibroblasts, 4720 nM; in the data set with 3T3 mouse fibroblasts (0.03–10 µM, 24 h) it was 4720 nM. Moreover, in data set [1] (setting [14]), the “RDIC50 S. aureus” value is recorded as 0.0. The “decrease of activity against B. subtilis in comparison with ciprofloxacin” value in data set [2] worked out at 40%. In addition, in data set [2] (setting [14]), the “RDIC50 B. subtilis” value turned out to be 0.6. In addition, the “RDIC50 K. pneumoniae” value in data set [3] (setting [14]) is on record as 19.9. For the same compound, the CMC in data set [4] is given as 0.0816 mmol/L.

On to `CCn1cc[n+](C)c1.O=C([O-])c1cn(C2CC2)c2cc(N3CCNCC3)c(F)cc2c1=O` [[EMIM][Cip]], for which the values for the IC50 in data set [1] (setting [10]), in data set [2] (setting [12]) and in data set [3] (setting [13]) were 24.2 nM, 16.2 nM and 64.8 nM, respectively. Moreover, in data set [1] (setting [14]), the “RDIC50 S. aureus” value was 1.2. Besides, in data set [2] (setting [14]), the “RDIC50 B. subtilis” value is recorded as 0.2. Also, the “RDIC50 K. pneumoniae” value in data set [3] (setting [14]) came to 3.0.
